# Source: ChEMBL document CHEMBL1201862, “PubChem BioAssay data set” (2004)
# Calls of active or inactive are those of the source. Rule as the data show it: actives have a measured IC50 and inactives only a lower limit.
# Target: Envelope glycoprotein gp160 (Human immunodeficiency virus 1, UniProt Q6QLK5)
# Assay: cell-free HIV fusion peptide-binding blockers – biochemical, uHTS, fluorescence dequenching, […] (AID 1986)
# Sequence of Envelope glycoprotein gp160 (Q6QLK5 whole entry, the tested form may be a part): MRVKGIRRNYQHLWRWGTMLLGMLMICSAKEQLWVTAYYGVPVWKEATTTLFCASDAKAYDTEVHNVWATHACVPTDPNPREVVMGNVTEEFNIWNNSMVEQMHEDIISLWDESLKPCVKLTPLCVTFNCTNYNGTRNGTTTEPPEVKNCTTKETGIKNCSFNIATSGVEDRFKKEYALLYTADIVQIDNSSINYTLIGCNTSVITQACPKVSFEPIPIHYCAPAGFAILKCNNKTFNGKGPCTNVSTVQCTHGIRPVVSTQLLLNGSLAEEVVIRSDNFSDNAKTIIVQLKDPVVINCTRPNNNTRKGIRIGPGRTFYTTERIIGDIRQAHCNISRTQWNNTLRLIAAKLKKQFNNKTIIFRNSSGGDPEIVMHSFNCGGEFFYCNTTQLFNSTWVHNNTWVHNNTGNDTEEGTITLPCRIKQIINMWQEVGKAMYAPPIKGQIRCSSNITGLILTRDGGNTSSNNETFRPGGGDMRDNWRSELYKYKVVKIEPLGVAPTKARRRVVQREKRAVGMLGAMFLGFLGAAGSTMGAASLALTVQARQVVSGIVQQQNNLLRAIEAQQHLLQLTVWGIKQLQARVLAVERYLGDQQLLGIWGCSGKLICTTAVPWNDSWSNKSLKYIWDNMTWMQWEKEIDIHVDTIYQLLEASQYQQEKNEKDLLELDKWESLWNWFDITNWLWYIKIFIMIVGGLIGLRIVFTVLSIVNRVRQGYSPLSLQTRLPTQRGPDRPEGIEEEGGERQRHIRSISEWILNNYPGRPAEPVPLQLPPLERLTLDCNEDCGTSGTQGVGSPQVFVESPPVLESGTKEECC
compound,measurement,value
Cc1ccc(N2C(=O)/C(=C\Nc3ccccc3-c3nnc(S)nc3O)c3ccccc3C2=O)c(C)c1,IC50,23.9 µM (active)
